Data set [1] has as its target T1, Monoglyceride lipase (Rattus norvegicus, UniProt Q8R431).
T1 sequence (Q8R431 whole entry): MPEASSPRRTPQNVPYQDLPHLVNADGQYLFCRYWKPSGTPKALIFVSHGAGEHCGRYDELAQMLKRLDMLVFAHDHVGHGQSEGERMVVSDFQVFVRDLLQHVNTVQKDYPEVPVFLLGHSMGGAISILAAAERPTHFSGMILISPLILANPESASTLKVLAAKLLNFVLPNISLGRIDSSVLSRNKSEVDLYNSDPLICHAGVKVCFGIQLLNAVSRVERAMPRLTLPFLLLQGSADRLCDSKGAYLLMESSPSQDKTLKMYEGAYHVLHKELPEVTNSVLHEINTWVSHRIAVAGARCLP
The experiment in a line: Inhibition of rat MAGL.

In data set [2] the target is T2, Monoglyceride lipase (Mus musculus, UniProt O35678).
T2 sequence (O35678 whole entry): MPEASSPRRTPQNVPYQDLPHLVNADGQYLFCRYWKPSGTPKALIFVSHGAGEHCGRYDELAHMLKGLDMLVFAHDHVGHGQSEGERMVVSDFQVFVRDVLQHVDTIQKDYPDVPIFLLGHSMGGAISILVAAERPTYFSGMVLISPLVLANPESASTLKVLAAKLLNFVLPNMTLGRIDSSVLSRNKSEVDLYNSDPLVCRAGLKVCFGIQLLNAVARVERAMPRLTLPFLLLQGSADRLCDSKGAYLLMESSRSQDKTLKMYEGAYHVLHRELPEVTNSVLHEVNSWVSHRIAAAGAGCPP
The experiment in a line: Inhibition of mouse MAGL.

Data set [3] addresses T3, Fatty-acid amide hydrolase 1 (Rattus norvegicus, UniProt P97612).
T3 sequence (P97612 whole entry): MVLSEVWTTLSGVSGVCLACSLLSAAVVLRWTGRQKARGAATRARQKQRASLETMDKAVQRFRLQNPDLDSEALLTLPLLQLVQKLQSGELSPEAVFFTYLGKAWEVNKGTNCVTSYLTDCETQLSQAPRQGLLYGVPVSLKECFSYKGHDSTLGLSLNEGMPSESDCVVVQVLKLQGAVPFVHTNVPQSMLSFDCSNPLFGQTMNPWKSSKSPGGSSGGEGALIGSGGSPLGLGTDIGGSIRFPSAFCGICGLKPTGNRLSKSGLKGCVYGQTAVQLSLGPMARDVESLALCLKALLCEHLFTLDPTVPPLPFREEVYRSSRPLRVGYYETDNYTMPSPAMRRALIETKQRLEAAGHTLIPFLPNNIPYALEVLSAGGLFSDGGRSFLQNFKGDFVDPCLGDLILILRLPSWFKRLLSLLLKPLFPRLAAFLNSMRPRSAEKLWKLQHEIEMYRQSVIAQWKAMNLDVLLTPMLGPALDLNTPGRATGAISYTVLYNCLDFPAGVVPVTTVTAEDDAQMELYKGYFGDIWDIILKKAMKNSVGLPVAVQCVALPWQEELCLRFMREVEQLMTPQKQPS
Put plainly: Inhibition of rat FAAH assessed as reduction in [14C]oleamide conversion to oleic acid by Lineweaver-Burk plot analysis.

In data set [4] the target is T4, N-acylethanolamine-hydrolyzing acid amidase (Homo sapiens, UniProt Q02083).
T4 sequence (Q02083 whole entry): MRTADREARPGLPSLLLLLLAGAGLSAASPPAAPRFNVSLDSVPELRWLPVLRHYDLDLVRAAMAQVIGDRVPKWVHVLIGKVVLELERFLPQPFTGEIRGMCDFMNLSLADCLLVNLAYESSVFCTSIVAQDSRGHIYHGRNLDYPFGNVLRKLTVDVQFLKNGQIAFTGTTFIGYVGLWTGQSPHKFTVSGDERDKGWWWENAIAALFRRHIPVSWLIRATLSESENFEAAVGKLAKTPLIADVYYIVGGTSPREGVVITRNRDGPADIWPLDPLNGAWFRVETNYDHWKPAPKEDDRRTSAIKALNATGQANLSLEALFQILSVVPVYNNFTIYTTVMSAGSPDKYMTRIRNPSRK
Put plainly: Inhibition of recombinant human NAAA expressed in HEK293 cells preincubated for 10 mins followed by PAMCA substrate addition after 30 mins by fluorescence assay. The format is cell-based.

Data set [5] addresses T3, Fatty-acid amide hydrolase 1. The experiment in a line: Inhibition of rat FAAH.
Data set [6] shares this target. The experiment in a line: Inhibition of rat brain microsomal FAAH using N-(2-hydroxyethyl)-4-pyren-1-yl-butanamide as substrate after 60 mins by RP HPLC based fluorescence assay.
Data set [7] has as its target T5, Fatty-acid amide hydrolase 2 (Homo sapiens, UniProt Q6GMR7).
T5 sequence (Q6GMR7 whole entry): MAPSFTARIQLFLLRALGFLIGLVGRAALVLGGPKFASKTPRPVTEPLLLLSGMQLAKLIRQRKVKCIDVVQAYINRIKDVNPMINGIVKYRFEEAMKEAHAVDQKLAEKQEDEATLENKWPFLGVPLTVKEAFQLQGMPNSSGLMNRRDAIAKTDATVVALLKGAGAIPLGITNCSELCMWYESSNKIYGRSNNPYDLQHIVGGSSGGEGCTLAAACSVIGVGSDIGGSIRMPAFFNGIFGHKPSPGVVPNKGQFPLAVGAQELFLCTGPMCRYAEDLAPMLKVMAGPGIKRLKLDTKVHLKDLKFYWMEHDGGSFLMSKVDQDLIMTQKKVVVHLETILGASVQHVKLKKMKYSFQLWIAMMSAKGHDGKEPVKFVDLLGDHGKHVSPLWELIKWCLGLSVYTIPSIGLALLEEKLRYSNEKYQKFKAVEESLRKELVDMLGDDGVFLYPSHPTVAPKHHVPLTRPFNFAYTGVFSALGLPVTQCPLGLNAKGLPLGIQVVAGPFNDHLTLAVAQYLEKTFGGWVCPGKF
The experiment in a line: Inhibition of recombinant human N-terminal FLAG-tagged/C-terminal Myc-His6 tagged FAAH2 (32 to 579 residues) expressed in COS7 cell membranes. The data set is classed as cell-based.

In data set [8] the target is T1, Monoglyceride lipase. Put plainly: Inhibition of rat MAGL preincubated for 30 mins followed by FP-Rh addition after 30 mins by gel-based ABPP assay.
The target of data set [9] is T6, Monoglyceride lipase (Homo sapiens, UniProt Q99685).
T6 sequence (Q99685 whole entry): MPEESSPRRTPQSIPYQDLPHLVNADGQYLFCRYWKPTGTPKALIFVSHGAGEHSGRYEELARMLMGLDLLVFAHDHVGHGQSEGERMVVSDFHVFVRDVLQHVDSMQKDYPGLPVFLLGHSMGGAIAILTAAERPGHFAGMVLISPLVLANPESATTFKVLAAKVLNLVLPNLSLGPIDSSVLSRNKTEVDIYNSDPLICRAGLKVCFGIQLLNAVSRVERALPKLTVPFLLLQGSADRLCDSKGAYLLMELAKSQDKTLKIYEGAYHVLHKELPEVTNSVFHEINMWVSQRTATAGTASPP
Put plainly: Inhibition of recombinant human N-terminal His6-tagged and C-terminal Strep-tagged MAGL expressed in Escherichia coli Rosetta using [3H]2-OG as substrate after 10 mins by liquid scintillation counting method.

The target of data set [10] is T3, Fatty-acid amide hydrolase 1. The experiment in a line: Inhibition of FAAH in Wistar rat brain membranes using [3H]-anandamide as substrate preincubated for 10 mins followed by substrate addition measured after 4 mins by liquid scintillation counting method. The data set is classed as cell membranes, Membrane.
The nature of data set [11]: Half life in rat plasma at 3 uM by LC/MS analysis. The format is ADME, cell-free.
Data set [12] has as its target T1, Monoglyceride lipase. The experiment in a line: Inhibition of rat cerebellar membranes MAGL-like activity preincubated for 30 mins followed by 2-AG substrate addition after 90 mins by HPLC analysis. Set-up: species or system Cerebellum, Membrane.
The species named for data set [13] is Homo sapiens. The experiment in a line: Selectivity index, ratio of IC50 for ABHD6 (unknown origin) to IC50 for human MAGL.
Data set [14] is filed under the species Homo sapiens. Put plainly: Selectivity index, ratio of IC50 for FAAH (unknown origin) to IC50 for human MAGL.
The target in data set [15] is T3, Fatty-acid amide hydrolase 1. Put plainly: Inhibition of Sprague-Dawley rat brain FAAH preincubated for 10 mins followed by [3H]-anandamide substrate addition after 30 mins by liquid scintillation counting method.
Data set [16] is described as follows: Half life in mouse plasma. The format is ADME, cell-free.

The values below come from ChEMBL document CHEMBL4177521, “Therapeutic Potential of Fatty Acid Amide Hydrolase, Monoacylglycerol Lipase, and N-Acylethanolamine Acid Amidase Inhibitors” (J Med Chem, 2017).

As a reminder, the IC50 is the concentration at which inhibition is half-maximal. Turning to `O=C(N1CCN(C(c2ccccc2)c2ccccc2)CC1)n1cncn1`, the IC50 was 0.589 nM on Monoglyceride lipase [1] and 0.309 nM at Monoglyceride lipase [2]. What is called Ki is a dissociation constant, usually derived from enzyme kinetics or from competition with a known ligand. In the case of `CCCCCCCCCC(=O)c1nc2ncccc2o1`, the Ki in data set [3] amounted to 0.75 nM. Consider `O=C(CCCCCCC1CCCCC1)N[C@H]1CNC1=O`, for which the IC50 in [4] is 280 nM. In turn, `COc1nn(-c2ccc(NC(=O)OCc3ccccc3)c(C)c2)c(=O)o1` yielded an IC50 in data set [5] of 86 nM. As to `O=C(NCCCCCCCn1nnc(-c2ccccc2)n1)Oc1ccccc1`, in [6], the 50% inhibitory concentration (IC50) is 81 nM. As to `O=C(CCCCCCc1ccccc1)c1ncc(-c2ccccn2)o1`, in data set [7], the IC50 came to 13.4 nM. `CN(Cc1cccc(-c2ccncc2)c1)C(=O)OC(C(F)(F)F)C(F)(F)F`: the IC50 on Monoglyceride lipase [8] is 385 nM. In [6], `O=C(NCCCCCCCCn1nnc(-c2ccccc2)n1)Oc1ccccc1` had an IC50 of 110 nM. Regarding `c1ccc(SSc2ccccc2)cc1`, the half-maximal inhibitory concentration (IC50) on Monoglyceride lipase [9] was 1600 nM. In the case of `O=C(NC1CCCCC1)Oc1ccc(O)c(-c2ccccc2)c1`, inhibition in data set [10] was half-maximal at 30 nM (IC50).

Consider `COc1nn(-c2cccc(Oc3ccccc3)c2)c(=O)o1`, for which half-maximal inhibition in data set [5] (IC50) required 6.1 nM.

What is called half-life is how long it takes for the measured level to halve. Lower therefore signals fast loss. As to `CC(C)(C)[C@@H]1OC(=O)[C@H]1NC(=O)OCc1ccc(-c2ccccc2)cc1`, in data set [11], the half-life at 3 µM was over 5 min. Also, the IC50 in [4] was determined as 507 nM. In turn, `O=C(NCCCCCCn1nnc(-c2ccccc2)n1)Oc1cccnc1` displayed an IC50 in [6] of 11 nM. In data set [6], `O=C(NCCCCCCCn1nnc(-c2cccc(Cl)c2)n1)Oc1cccnc1` came in with an IC50 of 5.3 nM. For the compound `O=C(N1CCC(=C(c2ccc3c(c2)OCO3)c2ccc3c(c2)OCO3)CC1)n1cncn1`, the IC50 at Monoglyceride lipase [1] came to 0.269 nM; at Monoglyceride lipase [2], 0.191 nM.

`CCN1C(=O)C=CC1=O` [N-ETHYLMALEIMIDE] displayed a 50% inhibitory concentration (IC50) against Monoglyceride lipase [12] of 53000 nM. On to `O=C(CCCCCCCc1ccccc1)c1nc2ncccc2o1`, for which the inhibitory constant (Ki) in data set [3] was found to be 0.39 nM.

As for `O=C(NCCCCCCn1nnc(-c2cccc(Cl)c2)n1)Oc1ccccc1`, in data set [6], the IC50 turned out to be 200 nM. Consider `O=C(N1CCC(C(c2ccc3c(c2)OCO3)c2ccc3c(c2)OCO3)CC1)n1cncn1`, for which the IC50 at Monoglyceride lipase [1] turned out to be 0.214 nM; on Monoglyceride lipase [2] it was 0.275 nM. Further, the Ratio IC50 came to 60 in the data set filed under Homo sapiens [13] and 11200 in the data set listed under Homo sapiens [14]. Regarding `O=C(N1CCN(C(c2ccccc2)c2ccccc2)CC1)n1ccnc1`, the IC50 came out at 4800 nM at Monoglyceride lipase [1] and 2600 nM against Monoglyceride lipase [2]. Turning to `O=C(NC1CCCCC1)OCc1cn(Cc2ccccc2)nn1`, the IC50 in [15] is 26.2 nM. The compound `O=C(CCc1ccccc1)N[C@H]1COC1=O` returned a half-life in data set [16] of under 1 min.
